{"source": "patent US9879013B2", "about": "“Purinone derivative” (ONO PHARMACEUTICAL CO., LTD., priority 2010, dated 2018)", "key": {"[1]": {"target": "Lck (Homo sapiens (Human), UniProt P06239)", "sequence (P06239 whole entry)": "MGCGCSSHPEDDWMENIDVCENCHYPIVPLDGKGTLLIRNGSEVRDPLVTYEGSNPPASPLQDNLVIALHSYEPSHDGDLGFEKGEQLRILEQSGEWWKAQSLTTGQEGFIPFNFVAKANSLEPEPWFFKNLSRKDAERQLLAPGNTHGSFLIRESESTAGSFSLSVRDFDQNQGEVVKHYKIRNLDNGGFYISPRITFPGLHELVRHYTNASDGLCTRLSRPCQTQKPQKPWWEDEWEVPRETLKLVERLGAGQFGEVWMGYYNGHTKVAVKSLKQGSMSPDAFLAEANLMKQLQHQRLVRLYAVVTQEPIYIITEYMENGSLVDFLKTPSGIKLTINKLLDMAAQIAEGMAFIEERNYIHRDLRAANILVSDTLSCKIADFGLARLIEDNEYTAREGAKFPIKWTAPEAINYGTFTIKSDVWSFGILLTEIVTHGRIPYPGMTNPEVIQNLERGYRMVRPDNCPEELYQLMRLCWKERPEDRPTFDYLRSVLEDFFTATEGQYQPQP", "assay": "Lck inhibitory activity, selectivity for Btk (Z'-LYTE kinase assay)", "type": "biochemical", "conditions": "ratio of the IC50 values of the individual kinases", "experimental": "The inhibitory activity for other kinases (for example, Lck, Fyn, and LynA (all from Invitrogen Corporation) was measured in the same manner as described above using the particular kinase in place of the Btk."}, "[2]": {"test_system": "B cells (CD20-positive CD3-negative cells) of human PBMC", "assay": "B cell activation using human PBMC (CD69-positive signal, FACS)", "type": "cell-based", "conditions": "anti-IgM antibody 1 μg/mL / IL-4 3 ng/mL, 22 hours", "experimental": "(§1) Measurement of B Cell Activation or T Cell Activation Using Human PBMC\n(§2) A 10 mmol/L solution of the test compound in DMSO was dispensed into a 96-well plate (Nunc) and a 5× dilution series was prepared using DMSO. A 100× concentration test compound dilution solution was prepared by an additional 10× dilution with RPMI1640 medium (contained 10% HI-FBS, 1% penicillin). Human peripheral blood mononuclear cells (PBMC) were diluted with the medium to provide a density of 2×10^6 cells/mL. 396 μL of the cell suspension was added to a 96-well plate into which 4 μL of the 100× concentration test compound dilution solution or the solvent (10% DMSO) had already been introduced and incubation was performed for 10 minutes at 37° C. and 5% CO2. 10 μL of an anti-IgM antibody (Southern Biotech)/IL-4 (R & D Systems) solution or an anti-CD3/CD28 antibody bead suspension (Invitrogen Corporation) was added to a 96-well plate and 90 μL of the cell suspension prepared as described above was also added (final concentrations: anti-IgM antibody=1 μg/mL, IL-4=3 ng/mL, and anti-CD3/CD28 antibody beads=2×10^6 beads/mL). 10 μL of the medium was added to the unstimulated sample wells in place of these stimulating substances, and standing at 37° C. and 5% CO2 was again performed. Incubation was carried out for 16 hours in the case of the evaluation of T cell activation and for 22 hours in the case of the evaluation of B cell activation. 100 μL Cytofix Buffer (BD Biosciences) was added; holding for 15 minutes at 37° C. was performed; centrifugation for 10 minutes at 1500 rpm was carried out; and the supernatant was removed. 200 μL of Perm buffer II (BD Biosciences) at −20° C. was added; holding for 30 minutes on ice was performed; centrifugation for 10 minutes at 1500 rpm was carried out; and the supernatant was removed. 0.5 mL Stain buffer (BD Biosciences) was added and centrifugation was carried out for 10 minutes at 1500 rpm. 100 μL of a mixed antibody solution was added and incubation was performed for 30 minutes on ice in the dark. The antibody was the 10× dilution with Stain Buffer of the 1:1:1 mixture of PerCP-labeled anti-CD3 antibody (BD Biosciences), AF488-labeled anti-CD20 antibody (BD Biosciences), and PE-labeled anti-CD69 antibody (BD Biosciences). 0.4 mL Stain Buffer was added and the supernatant was removed. […] The CD69-positive signal (average fluorescence intensity) of the CD20-positive CD3-negative cells (B cells) or CD3-positive CD20-negative cells (T cells) was measured. After subtracting the value for the unstimulated sample, the % inhibition with reference to the value for the stimulated control sample was determined. The % inhibition was graphically plotted using Prism (ver. 5.01 J, GraphPad Software) and the IC50 value was determined."}, "[3]": {"test_system": "T cells (CD3-positive CD20-negative cells) of human PBMC", "assay": "T cell activation using human PBMC (CD69-positive signal, FACS)", "type": "cell-based", "conditions": "anti-CD3/CD28 antibody beads, 16 hours", "experimental": "as §1, §2"}, "[4]": {"target": "Human CYP2C8 (Homo sapiens (Human), UniProt P10632)", "sequence (P10632 whole entry)": "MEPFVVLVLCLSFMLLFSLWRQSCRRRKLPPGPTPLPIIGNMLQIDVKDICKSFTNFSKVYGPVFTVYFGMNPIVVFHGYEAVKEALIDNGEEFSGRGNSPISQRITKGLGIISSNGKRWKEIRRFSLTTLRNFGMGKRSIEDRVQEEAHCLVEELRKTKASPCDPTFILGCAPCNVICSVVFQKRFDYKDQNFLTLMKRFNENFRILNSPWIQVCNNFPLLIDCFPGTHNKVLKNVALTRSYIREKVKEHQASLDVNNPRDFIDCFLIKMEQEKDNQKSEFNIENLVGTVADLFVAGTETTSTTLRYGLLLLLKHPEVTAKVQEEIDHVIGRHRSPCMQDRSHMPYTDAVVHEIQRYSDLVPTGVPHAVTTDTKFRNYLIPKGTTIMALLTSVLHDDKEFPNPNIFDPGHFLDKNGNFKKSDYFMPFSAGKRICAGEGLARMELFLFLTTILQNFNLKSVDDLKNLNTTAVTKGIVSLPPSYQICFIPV", "assay": "Inhibitory action on human CYP2C8", "type": "in vitro ADME", "experimental": "Measurement of the Inhibitory Activity on Drug-Metabolizing Enzymes (Inhibitory Action on Human CYP2C8 and Human CYP2C19)\nThe reaction was carried out in a 96-well plate. […] 100 μL of this reaction mixture and 50 μL of the test compound prepared as described above and the positive control solution prepared as described above were dispensed into each well and pre-incubation was carried out at 10 minutes for 37° C. The reaction was started by the addition of 50 μL NADPH solution (final concentration=1 mmol/L) and incubation was carried out for 30 minutes at 37° C."}, "[5]": {"test_system": "Human liver cells", "assay": "Cytotoxicity in cultured human hepatoma cells (ATP concentration, Celltiter Glo)", "type": "cell-based", "conditions": "50% decline in ATP concentration, exposure for 24 hours, read-out: Toxicity for human liver cells (IC50 (μM))", "experimental": "Measurement of the Cytotoxicity and Ability to Reduce the Mitochondrial Membrane Potential in Cultured Human Hepatoma Cells\nHuman liver cells were seeded into a collagen-coated 96-well plate at a cell density of 30,000 cells/well and incubation was carried out overnight in an incubator at 37° C. in 5% CO2-95% air. The cultured cells were stained for 1 hour with 5,5′,6,6′-tetrahydro-1,1′,3,3′-tetramethyl-benzamidazolocarbocyanine iodide (JC-1) followed by treatment with the test compound. The test compound was dissolved in DMSO and then diluted with the liquid culture medium Hepatocyte Culture Medium (HCM) and added to the cells. The test compound treatment concentrations were 0, 6.25, 12.5, 25, 50, 100, 200, and 400 μmol/L. After exposure to the test compound for 24 hours, measurement was performed with a SpectraMax plate reader (Molecular Devices, LLC) at an excitation wavelength of 485 nm and a fluorescence wavelength of 538 nm and an excitation wavelength of 544 nm and a fluorescence wavelength of 590 nm. The membrane potential was determined by the ratio between the 544 nm/590 nm measurement value and the 485 nm/538 nm measurement value. After this, the ATP concentration in the cells was measured using a Celltiter Glo luminescent assay kit (Promega Corporation) in order to evaluate the cell toxicity of the test compound. The cells were lysed by the assay buffer provided with the measurement kit and the concentration of the ATP released from the cells was measured using the luciferin-luciferase enzyme activity as the index. The emission was measured using a SpectraMax plate reader. […] The ability to lower the mitochondrial membrane potential of the test compounds and the cytotoxicity of the test compounds are given in Table 3 below."}}}
{"smiles": "C=CC(=O)N1CC(n2c(=O)n(-c3ccc(Oc4ccccc4)cc3)c3c(N)ncnc32)C1", "note": "[Example 8, 9-(1-acryloyl-3-azetidinyl)-6-amino-7-(4-phenoxyphenyl)-7,9-dihydro-8H-purin-8-one]", "values": [{"measurement": "Lck[IC50]/Btk[IC50]", "setting": "[1]", "value": 80}, {"measurement": "IC50", "setting": "[2]", "value": 0.021, "unit": "µM"}, {"measurement": "IC50", "setting": "[3]", "value": "> 10", "unit": "µM"}, {"measurement": "IC50", "setting": "[4]", "value": "> 10", "unit": "µM"}, {"measurement": "IC50", "setting": "[5]", "value": 290, "unit": "µM"}]}
